Data: patent US11459315B2, “Modulators of methyl modifying enzymes, compositions and uses thereof” (Constellation Pharmaceuticals, Inc., priority 2017, dated 2022)
Where two headings read alike, the source gives them in different places.

Assays:
PRC2 containing wt EZH2 = PRC2 containing wt EZH2 (Homo sapiens (Human), UniProt Q15910); experiment: EZH2 biochemical assay (IC50), 3H-SAM incorporation into biotinylated H3 peptide
Procedure, shortened: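 The PRC2 pentamer with wt EZH2 (30 pM) was pre-incubated for 3-5 h with 450 nM SAM plus 450 nM ³H-SAM, 2 µM H3K27me3 activating peptide and compound (0.8% DMSO) in Tris at pH 8.5. Biotinylated H3K27me1 peptide was added and the reaction ran 18-22 h at RT. Incorporated ³H was captured on streptavidin plates, and IC50 was taken from a four-parameter fit.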

[1] = test system: H3K27me3 mark in HeLa cells (EZH2); experiment: H3K27me3 Alpha Hela Assay (AlphaLISA); assay type: cell-based; conditions: HeLa cells, 72 hrs, read-out: EZH2 Cell H3K27me3 Alpha HeLa (EC50 K27me3)
Procedure, shortened: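 HeLa cells (1,000/well) treated with ten 3-fold compound doses for 72 h at 37 °C; lysates extracted and H3K27me3 detected by AlphaLISA with anti-K27me3 acceptor beads, biotinylated anti-H3 (3 nM) and streptavidin donor beads. EC50 from DMSO-normalized dose-response curves; duplicate plate assessed viability.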

[2] = EZH2 (IC50), 30 pM PRC2 containing wt EZH2; 3-5 h pre-incubation
[3] = 30 pM PRC2 containing wt EZH2; 3-5 h pre-incubation; read-out: EZH2 (IC50)
[4] = read-out: EZH2 (IC50); 30 pM PRC2 containing wt EZH2; 3-5 h pre-incubation

PRC2 containing wt EZH2, sequence (Q15910 whole entry): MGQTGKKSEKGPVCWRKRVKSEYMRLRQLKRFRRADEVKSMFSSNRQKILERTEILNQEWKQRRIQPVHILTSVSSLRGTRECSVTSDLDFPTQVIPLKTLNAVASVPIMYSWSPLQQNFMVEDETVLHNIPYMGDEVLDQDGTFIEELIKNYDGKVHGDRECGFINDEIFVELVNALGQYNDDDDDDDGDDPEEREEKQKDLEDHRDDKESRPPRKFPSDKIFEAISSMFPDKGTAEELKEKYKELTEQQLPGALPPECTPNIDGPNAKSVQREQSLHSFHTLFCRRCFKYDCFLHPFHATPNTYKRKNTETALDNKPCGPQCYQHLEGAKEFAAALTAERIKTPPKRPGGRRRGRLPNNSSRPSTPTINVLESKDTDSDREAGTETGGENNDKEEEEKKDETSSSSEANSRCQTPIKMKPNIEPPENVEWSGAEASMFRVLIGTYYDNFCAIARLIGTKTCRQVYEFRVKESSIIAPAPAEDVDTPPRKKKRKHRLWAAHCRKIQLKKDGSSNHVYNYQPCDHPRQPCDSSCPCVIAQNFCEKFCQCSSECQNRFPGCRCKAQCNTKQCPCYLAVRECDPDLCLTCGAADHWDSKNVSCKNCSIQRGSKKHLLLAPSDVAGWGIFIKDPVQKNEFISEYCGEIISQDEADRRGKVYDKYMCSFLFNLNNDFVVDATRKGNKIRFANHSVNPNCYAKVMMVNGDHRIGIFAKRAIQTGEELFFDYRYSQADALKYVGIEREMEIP
PRC2 containing wt EZH2, sequence (O75530 whole entry partner): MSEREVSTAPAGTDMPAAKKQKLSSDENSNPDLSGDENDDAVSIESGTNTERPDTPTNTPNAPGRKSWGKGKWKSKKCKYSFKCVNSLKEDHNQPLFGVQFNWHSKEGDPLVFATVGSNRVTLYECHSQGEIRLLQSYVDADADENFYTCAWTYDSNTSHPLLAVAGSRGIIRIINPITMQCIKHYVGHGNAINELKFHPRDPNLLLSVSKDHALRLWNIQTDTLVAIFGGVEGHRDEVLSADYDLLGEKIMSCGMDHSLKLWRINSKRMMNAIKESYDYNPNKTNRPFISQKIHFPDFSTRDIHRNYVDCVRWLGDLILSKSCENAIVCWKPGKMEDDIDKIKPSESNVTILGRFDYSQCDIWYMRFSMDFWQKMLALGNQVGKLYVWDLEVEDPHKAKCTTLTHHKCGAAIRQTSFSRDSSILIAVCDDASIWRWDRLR
PRC2 containing wt EZH2, sequence (Q15022 whole entry partner): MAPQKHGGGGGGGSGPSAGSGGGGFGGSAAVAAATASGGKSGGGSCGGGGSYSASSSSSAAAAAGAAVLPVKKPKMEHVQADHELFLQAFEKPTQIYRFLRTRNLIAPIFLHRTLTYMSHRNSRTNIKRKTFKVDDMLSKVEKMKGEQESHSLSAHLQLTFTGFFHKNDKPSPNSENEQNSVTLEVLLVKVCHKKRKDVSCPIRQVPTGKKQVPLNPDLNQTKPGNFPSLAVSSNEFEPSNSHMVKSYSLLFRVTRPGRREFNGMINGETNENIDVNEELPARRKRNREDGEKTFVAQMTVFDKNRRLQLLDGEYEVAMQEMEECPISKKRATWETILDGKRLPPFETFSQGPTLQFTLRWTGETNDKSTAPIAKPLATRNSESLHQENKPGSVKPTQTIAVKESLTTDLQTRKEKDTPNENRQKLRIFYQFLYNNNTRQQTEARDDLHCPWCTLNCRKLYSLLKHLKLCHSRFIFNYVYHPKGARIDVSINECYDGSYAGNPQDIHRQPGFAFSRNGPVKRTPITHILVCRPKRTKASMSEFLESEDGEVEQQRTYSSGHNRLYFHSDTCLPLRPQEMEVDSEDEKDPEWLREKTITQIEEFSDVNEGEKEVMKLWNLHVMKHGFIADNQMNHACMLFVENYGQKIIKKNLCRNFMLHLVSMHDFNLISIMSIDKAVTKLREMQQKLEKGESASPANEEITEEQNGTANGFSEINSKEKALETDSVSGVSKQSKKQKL
PRC2 containing wt EZH2, sequence (Q09028 whole entry partner): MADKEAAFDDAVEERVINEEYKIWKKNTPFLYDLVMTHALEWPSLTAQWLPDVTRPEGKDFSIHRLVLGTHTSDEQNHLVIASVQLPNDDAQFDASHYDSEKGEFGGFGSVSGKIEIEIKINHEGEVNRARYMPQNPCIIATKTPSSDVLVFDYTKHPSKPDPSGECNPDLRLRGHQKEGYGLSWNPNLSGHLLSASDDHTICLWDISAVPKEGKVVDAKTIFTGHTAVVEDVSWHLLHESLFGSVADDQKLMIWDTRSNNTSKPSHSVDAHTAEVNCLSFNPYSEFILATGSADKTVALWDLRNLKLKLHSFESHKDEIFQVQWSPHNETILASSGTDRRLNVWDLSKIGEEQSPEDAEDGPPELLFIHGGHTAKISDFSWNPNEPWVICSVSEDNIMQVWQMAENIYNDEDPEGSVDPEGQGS
PRC2 containing wt EZH2, sequence (Q6ZN18 whole entry partner): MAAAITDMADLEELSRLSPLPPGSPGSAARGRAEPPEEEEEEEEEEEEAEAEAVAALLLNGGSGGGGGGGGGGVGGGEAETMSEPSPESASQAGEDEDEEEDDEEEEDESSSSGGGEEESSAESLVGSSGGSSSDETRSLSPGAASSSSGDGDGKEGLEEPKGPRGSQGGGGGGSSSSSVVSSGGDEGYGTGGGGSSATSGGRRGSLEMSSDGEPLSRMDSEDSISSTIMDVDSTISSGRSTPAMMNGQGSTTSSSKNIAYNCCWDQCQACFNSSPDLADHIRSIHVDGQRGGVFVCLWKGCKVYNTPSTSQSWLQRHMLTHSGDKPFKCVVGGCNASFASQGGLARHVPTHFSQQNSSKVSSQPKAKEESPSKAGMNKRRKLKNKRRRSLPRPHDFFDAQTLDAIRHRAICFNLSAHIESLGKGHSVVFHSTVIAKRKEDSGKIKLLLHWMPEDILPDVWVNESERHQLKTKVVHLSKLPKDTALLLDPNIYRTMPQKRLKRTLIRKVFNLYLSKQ

| Compound | IC50 (PRC2 containing wt EZH2; [2]) [nM] | EC50 ([1]; Homo sapiens, HeLa, 72 h) [nM] | IC50 (PRC2 containing wt EZH2; [3]) [nM] | EC50 [1] [nM] | IC50 (PRC2 containing wt EZH2; [4]) [nM] |
| --- | --- | --- | --- | --- | --- |
| CSc1cc(C)[nH]c(=O)c1CNC(=O)c1c(C)n([C@H](C)C2CCN(CC(F)F)CC2)c2ncccc12 [Example 59, (R)-1-(1-(1-(2,2-difluoroethyl)piperidin-4-yl)ethyl)-2-methyl-N-((6-methyl-4-(methylthio)-2-oxo-1,2-dihydropyridin-3-yl)methyl)-1H-pyrrolo[2,3-b]pyridine-3-carboxamide] | < 0.5 | < 10 | – | – | – |
| CSc1cc(C)[nH]c(=O)c1CNC(=O)c1c(C)n([C@H](C)C2CCC(N(C)C3(C)COC3)CC2)c2ccccc12 (single isomer, unassigned) [3 (isomer 2)] | – | – | < 0.5 | 10 to 100 | – |
| CSc1cc(C)[nH]c(=O)c1CNC(=O)c1c(C)n([C@H](C)C2CCC(NC3(C(F)(F)F)COC3)CC2)c2ncncc12 (single isomer, unassigned) [164 (isomer 2)] | – | – | 0.5 to 5 | 10 to 100 | – |
| CSc1cc(C)[nH]c(=O)c1CNC(=O)c1c(C)n([C@H](C)C2CCN(C3CC(F)C3)CC2)c2ccccc12 (single isomer, unassigned) [64 (isomer 1)] | < 0.5 | 10 to 100 | – | – | – |
| CSc1cc(C)[nH]c(=O)c1CNC(=O)c1c(C)n([C@H](C)C2CCC(N(C)C)CC2)c2ncccc12 (single isomer, unassigned) [51 (isomer 1)] | – | – | < 0.5 | 10 to 100 | – |
| CSc1cc(C)[nH]c(=O)c1CNC(=O)c1c(C)n([C@H](C)C2CCC(N3CC[C@@H](F)C3)CC2)c2ccccc12 (single isomer, unassigned) [79 (isomer 2)] | – | – | – | 10 to 100 | < 0.5 |
| COC1CN(C2CCC([C@@H](C)n3c(C)c(C(=O)NCc4c(SC)cc(C)[nH]c4=O)c4cc(F)cnc43)CC2)C1 (single isomer, unassigned) [94 (isomer 1)] | – | – | < 0.5 | < 10 | – |
| CSc1cc(C)[nH]c(=O)c1CNC(=O)c1c(C)n([C@H](C)C2OCC(NC(C)(C)C)CO2)c2ccccc12 (single isomer, unassigned) [5 (isomer 2)] | – | – | < 0.5 | < 10 | – |
| CSc1cc(C)[nH]c(=O)c1CNC(=O)c1c(C)n([C@H](C)C2OCC(N(C)C)CO2)c2ccccc12 (single isomer, unassigned) [7 (isomer 1)] | – | – | 0.5 to 5 | > 100 | – |
| CSc1cc(C)[nH]c(=O)c1CNC(=O)c1c(C)n([C@H](C)C2CCC(O)CC2)c2cc(F)ccc12 (single isomer, unassigned) [44 (isomer 1)] | < 0.5 | < 10 | – | – | – |
| COCCN(C)C1COC([C@@H](C)n2c(C)c(C(=O)NCc3c(SC)cc(C)[nH]c3=O)c3ccccc32)OC1 (single isomer, unassigned) [16 (isomer 1)] | – | – | < 0.5 | < 10 | – |
| COC1CN(C2CCC([C@@H](C)n3c(C)c(C(=O)NCc4c(SC)cc(C)[nH]c4=O)c4ccccc43)CC2)C1 (single isomer, unassigned) [4 (isomer 2)] | – | – | – | 10 to 100 | < 0.5 |
| CSc1cc(C)[nH]c(=O)c1CNC(=O)c1c(C)n([C@H](C)C2CCN(C(=O)CO)CC2)c2ccccc12 [Example 135, (R)-1-(1-(1-(2-hydroxyacetyl)piperidin-4-yl)ethyl)-2-methyl-N-((6-methyl-4-(methylthio)-2-oxo-1,2-dihydropyridin-3-yl)methyl)-1H-indole-3-carboxamide] | – | > 100 | < 0.5 | – | – |
| CSc1cc(C)[nH]c(=O)c1CNC(=O)c1c(C)n([C@H](C)C2CCC(N3CC(OC4CC4)C3)CC2)c2ncc(Cl)cc12 (stereo partly drawn) [Example 124, 5-chloro-1-((R)-1-(4-(3-cyclopropoxyazetidin-1-yl)cyclohexyl)ethyl)-2-methyl-N-((6-methyl-4-(methylthio)-2-oxo-1,2-dihydropyridin-3-yl)methyl)-1H-pyrrolo[2,3-b]pyridine-3-carboxamide] | – | < 10 | < 0.5 | – | – |
| CSc1cc(C)[nH]c(=O)c1CNC(=O)c1c(C)n([C@H](C)C2OCC(NC(C)(C)C)CO2)c2ccccc12 (single isomer, unassigned) [5 (isomer 1)] | – | 10 to 100 | 0.5 to 5 | – | – |
| CSc1cc(C)[nH]c(=O)c1CNC(=O)c1c(C)n([C@H](C)C2CCC(O)CC2)c2nc(C)ccc12 (stereo partly drawn) [Example 40, 1-((1R)-1-(4-hydroxycyclohexyl)ethyl)-2,6-dimethyl-N-((6-methyl-4-(methylthio)-2-oxo-1,2-dihydropyridin-3-yl)methyl)-1H-pyrrolo[2,3-b]pyridine-3-carboxamide] | 0.5 to 5 | > 100 | – | – | – |
| COc1cccc2c1c(C(=O)NCc1c(SC)cc(C)[nH]c1=O)c(C)n2[C@H](C)C1CCN(CC(F)(F)F)CC1 [Example 101, (R)-4-methoxy-2-methyl-N-((6-methyl-4-(methylthio)-2-oxo-1,2-dihydropyridin-3-yl)methyl)-1-(1-(1-(2,2,2-trifluoroethyl)piperidin-4-yl)ethyl)-1H-indole-3-carboxamide] | – | 10 to 100 | 0.5 to 5 | – | – |
| CSc1cc(C)[nH]c(=O)c1CNC(=O)c1c(C)n([C@H](C)C2CCC(Oc3cnn(C)c3)CC2)c2ncccc12 (single isomer, unassigned) [147 (isomer 1)] | – | < 10 | < 0.5 | – | – |
| CSc1cc(C)[nH]c(=O)c1CNC(=O)c1c(C)n([C@H](C)C2CCC(N3CC(OC(F)(F)F)C3)CC2)c2ccccc12 (single isomer, unassigned) [21 (isomer 2)] | – | – | < 0.5 | 10 to 100 | – |
| CSc1cc(C)[nH]c(=O)c1CNC(=O)c1c(C)n([C@H](C)C2CCN(CC(F)(F)F)CC2)c2ncncc12 [Example 73, (R)-6-methyl-N-((6-methyl-4-(methylthio)-2-oxo-1,2-dihydropyridin-3-yl)methyl)-7-(1-(1-(2,2,2-trifluoroethyl)piperidin-4-yl)ethyl)-7H-pyrrolo[2,3-d]pyrimidine-5-carboxamide] | < 0.5 | < 10 | – | – | – |
| CSc1cc(C)[nH]c(=O)c1CNC(=O)c1c(C)n([C@H](C)C2OCC(NC3(C)COC3)CO2)c2ccccc12 (single isomer, unassigned) [6 (isomer 1)] | – | – | < 0.5 | < 10 | – |
| CSc1cc(C)[nH]c(=O)c1CNC(=O)c1c(C)n([C@H](C)C2CCC(NC3(C(F)(F)F)CC3)CC2)c2ncccc12 (stereo partly drawn) [Example 161, 2-methyl-N-((6-methyl-4-(methylthio)-2-oxo-1,2-dihydropyridin-3-yl)methyl)-1-((R)-1-(4-((1-(trifluoromethyl)cyclopropyl)amino)cyclohexyl)ethyl)-1H-pyrrolo[2,3-b]pyridine-3-carboxamide] | – | 10 to 100 | < 0.5 | – | – |
| CSc1cc(C)[nH]c(=O)c1CNC(=O)c1c(C)n([C@H](C)C2OCC(N3CC(C)(C)C3)CO2)c2ccccc12 (single isomer, unassigned) [78 (isomer 1)] | < 0.5 | – | – | 10 to 100 | – |
| COC1CC(N2CCC([C@@H](C)n3c(C)c(C(=O)NCc4c(SC)cc(C)[nH]c4=O)c4cccnc43)CC2)C1 (stereo partly drawn) [Example 141, (R)-1-(1-(1-(3-methoxycyclobutyl)piperidin-4-yl)ethyl)-2-methyl-N-((6-methyl-4-(methylthio)-2-oxo-1,2-dihydropyridin-3-yl)methyl)-1H-pyrrolo[2,3-b]pyridine-3-carboxamide] | < 0.5 | 10 to 100 | – | – | – |
| CSc1cc(C)[nH]c(=O)c1CNC(=O)c1c(C)n([C@H](C)C2CCC(C)(O)CC2)c2ccccc12 (single isomer, unassigned) [22 (isomer 1)] | < 0.5 | < 10 | – | – | – |
